test: Solubility in the fluorine-containing organic solvent 1,3-bis(trifluoromethyl)benzene (maximum amount giving a homogeneous solution, judged visually); conditions: 10 ml of 1,3-bis(trifluoromethyl)benzene, 25° C., stirred, visually measured

SMILES | solubility in 1,3-bis(trifluoromethyl)benzene
CC1(C)OB(c2cc(B3OC(C)(C)C(C)(C)O3)cc(B3OC(C)(C)C(C)(C)O3)c2)OC1(C)C [1,3,5-tris(4,4,5,5-tetramethyl-1,3,2-dioxaborolan-2-yl)benzene] | 0.20 g/10 ml solvent
OB(O)c1ccc(B(O)O)cc1 [1,4-benzene diboronic acid] | insoluble
CC1(C)OB(c2ccc(B3OC(C)(C)C(C)(C)O3)cc2)OC1(C)C [1,4-bis(4,4,5,5-tetramethyl-1,3,2-dioxaborolan-2-yl)benzene] | 0.17 g/10 ml solvent
CC1(C)OB(c2cc(OCCCC(F)(F)C(F)(F)C(F)(F)C(F)(F)C(F)(F)C(F)(F)F)cc(B3OC(C)(C)C(C)(C)O3)c2)OC1(C)C [Example, 1-(1H,1H,2H,2H,3H,3H-perfluorononane-1-yloxy)-3,5-bis-(4,4,5,5-tetramethyl-1,3,2-dioxaborolan-2-yl)benzene] | 5.0 g/10 ml solvent

Reference: patent US7951964B2, “Fluorine-containing boronic acid ester compound and method for producing the same” (Unimatec Co., Ltd., priority 2008, dated 2011)
